Data taken from patent publication US20080161232A1, “C5a Receptor Antagonist” (JERINI AG, priority 2005, published 2008).
Starred links: 1 amine or outer side, 2 acyl side, 3 side chain; linkers in the order of their positions; H or OH if unused. Positions of bridges follow the written chain, without caps; N, C: chain ends. Non-standard residues stand in square brackets, D forms with d. Residues, ends and D or L forms follow the SMILES beside them. *: point of attachment. X1 = COC1O[C@H](C(=O)[*:2])[C@@H](O)[C@H](O)[C@H]1N[*:1]; Orn(2-imidazolinyl) = N[C@@H](CCCNC1=NCCN1)C(=O)O; Dip = N[C@H](C(=O)O)C(c1ccccc1)c1ccccc1; Bta = N[C@@H](Cc1csc2ccccc12)C(=O)O; Hydrocinnamoyl = O=C(CCc1ccccc1)*; 2Thi = N[C@@H](Cc1cccs1)C(=O)O; dCha = N[C@H](CC1CCCCC1)C(=O)O; AllylGly = C=CC[C@H](N)C(=O)O; Pip = O=C(O)[C@@H]1CCCCN1; Nle = CCCC[C@H](N)C(=O)O; Orn = NCCC[C@H](N)C(=O)O; Aze = O=C(O)[C@@H]1CCN1

Legend:
human C5aR(CD88) [1] = target: T1, human C5aR(CD88) (Homo sapiens, UniProt P21730); assay: Determination of the IC50 value in an enzyme release assay (functional assay, antagonistic activity); type: cell-based; details: for IC50: antagonistic activity, IC50 group in enzyme release assay, RBL cells expressing human C5aR(CD88), read-out: activity (group); for inhibitory activity (in words): functional assay of example 11, noteworthy = IC50 less than 200 nM
T1 construct: expressed in transfected cells; host or cells: rat basophilic leukemia cells (RBL)
T1 sequence (P21730 1-350): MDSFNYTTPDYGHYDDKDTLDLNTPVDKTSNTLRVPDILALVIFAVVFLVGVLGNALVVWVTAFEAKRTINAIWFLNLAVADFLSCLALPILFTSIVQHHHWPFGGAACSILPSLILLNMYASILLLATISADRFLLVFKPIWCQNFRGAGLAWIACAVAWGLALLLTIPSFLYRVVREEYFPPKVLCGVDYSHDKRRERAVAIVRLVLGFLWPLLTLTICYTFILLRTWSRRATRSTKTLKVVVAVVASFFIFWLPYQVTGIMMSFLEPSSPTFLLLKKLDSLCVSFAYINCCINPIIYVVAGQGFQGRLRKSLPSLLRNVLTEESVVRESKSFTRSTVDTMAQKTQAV

human C5aR(CD88) [2] = target: T1, human C5aR(CD88); assay: Determination of EC50-values in an enzyme release assay (agonistic activity); type: cell-based; details: for agonistic activity (in words): cellular assay, up to a concentration of at least 1430 nM; for EC50: agonistic activity, no C5a added, read-out: EC50
Procedure: The assay procedure was described by Kohl (Kohl 1997 The Anaphylatoxins. In: Dodds, A. W., Sim, R. B. (Eds.), Complement: A Practical Approach. Oxford, pp. 135-163). Basophilic leukemia cells from rats (RBL), which express the human C5aR(CD88), were cultivated in DMEM with 10% fetal bovine serum, 100 U/ml penicillin, 100 μg/ml streptomycin and 2 mM glutamine (all components of the media from Biochrome, Berlin) to confluence at 37° C. and 10% CO2. The following specifications refer to single cell culture flask having a surface of 75 cm^2. Medium was decanted from cells. Cells were washed with 10 ml PBS (Dulbecco's PBS, Biochrome) and subsequently overlayed with 3 ml Cell Dissociation Solution (CDS, Sigma). Cells were incubated for 1 min at room temperature. Subsequently, CDS was removed and the cells were further incubated for 10-15 min at 37° C. for dissociation. In the assay, 20 μl of the solution containing the compound to be tested were used. This solution should not contain more than 2.8% DMSO. For the dilution process, the compounds were diluted in ⅓ or ½ steps. To 20 μl compound solution 75 μl of the RBL-cells were added, which were treated as follows: after dissociation cells were detached and warmed at 37° C. in 10 ml HAG-CM (20 mM HEPES; 125 mM NaCl, 5 mM KCl, 1 mM CaCl2, 1 mM MgCl2, 0,5 mM Glucose, 0,25% BSA. HEPES-preparation: 2.3 g/l HEPES-salt +2.66 g/l HEPES acid). Cells were counted and centrifuged (200×g, 10 min). The cell pellet was resuspended in preheated HAG-CM (i.e. Hepes-buffer NaCl-glucose-solution with calcium and magnesium), and the cell density was adjusted to 2×10^6 cells/ml. The cells were incubated at 37° C. for 5 min. Per ml cell suspension 27 μl of a cytochalasin B-solution were added (100 μg/ml in DMSO, Sigma). The cells were incubated for further 3 min at 37° C. 75 μl of the cell suspension were added to 20 μl compound solution leading to a volume of 95 μl per well. After incubation of the cells for 10 min at 37° C. 10 μl hrC5a (10.5 nM in HAG-CM, Sigma) per well were added. The cells were incubated for additional 5 min at 37° C. The mtp was then transferred to ice and centrifuged for 3 min at 4° C. with 1200×g. 75 μl of the supernatant were added to 100 μl substrate-solution (2.7 mg/ml p-nitrophenyl-N-acetyl-β-D-glucosaminide (Sigma) in 42.5 mM Na-acetate pH 4.5). The mtp was incubated for further 60 min at 37° C. 75 μl 0.4 M glycine pH 10.4 were added per well. The mtp was transferred into a reader and the absorption at 405 nm was measured. IC50-values were obtained following the equation; y=((A-D)/(1+(x/C)^B))+D.
Determination of EC50-Values in an Enzyme Release Assay
The determination of EC50-values was performed according to the procedure given in example II, with the exception that 30 μl of the test compound need to be mixed with 75 μl of the cell suspension mentioned in example 11. Neither preincubation nor addition of C5a for stimulation of enzyme release is needed.

[3] = Solubility determination for selected C5aR-antagonists; type: physicochemical; details: for Solubility in 20 mM HEPES pH 7.4 (% of 200 μM): 20 mM HEPES pH 7.4, 24 h at RT
Procedure: Solubility Determination for Selected C5aR-Antagonists
[…] The undissolved part was removed by centrifugation after 24 h. The UV-absorption of the supernatant was measured and compared to a reference solution of the compound in 60% MeOH.

Compound	IC50 (human C5aR(CD88) [1])	inhibitory activity (in words) (human C5aR(CD88) [1])	agonistic activity (in words) (human C5aR(CD88) [2])	Solubility in 20 mM HEPES pH 7.4 (% of 200 μM) [3]	solubility in aqueous HEPES buffer (pH 7.4) [3]	EC50 (human C5aR(CD88) [2])	inhibitory activity (in words) (human C5aR(CD88) [1]; listed as Ac-Phe-[Orn-Pro-cha-Trp-Eaf])
CC(=O)N[C@@H](Cc1ccccc1)C(=O)N[C@@H](CCCNC1=NCCN1)C(=O)N1CCC[C@H]1C(=O)N[C@H](CC1CCCCC1)C(=O)N[C@@H](Cc1csc2ccccc12)C(=O)N[C@@H](Cc1ccccc1)C(N)=O [Compound 150, Ac-Phe-Arg(CH2—CH2)-Pro-cha-Bta-Phe-NH2] (Ac-F[Orn(2-imidazolinyl)]P[dCha][Bta]F-NH2)	5 to 10 nM	noteworthy inhibitory activity	pure antagonists				
CC(=O)N[C@@H](Cc1ccccc1)C(=O)N[C@H]1CCCNC(=O)[C@H](CCCNC(=N)N)NC(=O)[C@H](Cc2c[nH]c3ccccc23)NC(=O)[C@@H](CC2CCCCC2)NC(=O)[C@@H]2CCCN2C1=O [Compound 40, Ac-Phe-[Orn-Pro-cha-Trp-Arg], reference compound]				94 % of 200 μM	94%		
CC(=O)N[C@H](C(=O)N[C@@H](CCCN)C(=O)N1CCC[C@H]1C(=O)N[C@H](CC1CCCCC1)C(=O)N[C@@H](Cc1c[nH]c2ccccc12)C(=O)N[C@@H](Cc1ccccc1)C(N)=O)C(c1ccccc1)c1ccccc1 [Compound 71, Ac-Ebw-Orn-Pro-cha-Trp-Phe-NH2] (Ac-[Dip][Orn]P[dCha]WF-NH2)	200 to 2000 nM		pure antagonists			> 100000 nM	
CC(=O)N[C@@H](Cc1ccccc1)C(=O)N[C@@H](CCCN)C(=O)N1CCC[C@H]1C(=O)N[C@H](CC1CCCCC1)C(=O)N[C@@H](Cc1csc2ccccc12)C(=O)N[C@@H](Cc1ccccc1)C(N)=O [Compound 62, Ac-Phe-Orn-Pro-cha-Bta-Phe-NH2] (Ac-F[Orn]P[dCha][Bta]F-NH2)	20 to 50 nM		pure antagonists			> 100000 nM	
CC(=O)N[C@@H](Cc1ccccc1)C(=O)N[C@@H](CCCNC(=N)N)C(=O)N1CCC[C@H]1C(=O)N[C@H](CC1CCCCC1)C(=O)N[C@@H](Cc1c[nH]c2ccccc12)C(=O)N[C@@H](Cc1ccccc1)C(N)=O [Compound 88, Ac-Phe-Arg-Pro-cha-Trp-Phe-NH2] (Ac-FRP[dCha]WF-NH2)	20 to 50 nM		pure antagonists			> 100000 nM	
CC(=O)N[C@@H](Cc1ccccc1)C(=O)N[C@@H](CCCN)C(=O)N1CCCC[C@H]1C(=O)N[C@H](CC1CCCCC1)C(=O)N[C@@H](Cc1c[nH]c2ccccc12)C(=O)N[C@@H](Cc1ccccc1)C(N)=O [Compound 55, Ac-Phe-Orn-Pip-cha-Trp-Phe-NH2] (Ac-F[Orn][Pip][dCha]WF-NH2)	20 to 50 nM		pure antagonists			> 100000 nM	
CCCC[C@@H]1NC(=O)[C@H](Cc2c[nH]c3ccccc23)NC(=O)[C@@H](CC2CCCCC2)NC(=O)[C@@H]2CCCN2C(=O)[C@@H](NC(=O)CCc2ccccc2)CCCNC1=O [Compound 41, Ph-CH2—CH2—CO-[Orn-Pro-cha-Trp-Nle]] (Hydrocinnamoyl-[Orn]P[dCha]W[Nle]; lactam 1-C)	10 to 20 nM	noteworthy inhibitory activity	pure antagonists			> 1430 nM	
CC(=O)N[C@@H](Cc1ccccc1)C(=O)N[C@@H](CCCN)C(=O)N1CC[C@H]1C(=O)N[C@H](CC1CCCCC1)C(=O)N[C@@H](Cc1c[nH]c2ccccc12)C(=O)N[C@@H](Cc1ccccc1)C(N)=O [Compound 83, Ac-Phe-Orn-Aze-cha-Trp-Phe-NH2] (Ac-F[Orn][Aze][dCha]WF-NH2)	20 to 50 nM		pure antagonists			> 100000 nM	
CC(=O)N[C@@H](Cc1cccs1)C(=O)N[C@@H](CCCN)C(=O)N1CCCC[C@H]1C(=O)N[C@H](CC1CCCCC1)C(=O)N[C@@H](Cc1csc2ccccc12)C(=O)N[C@@H](Cc1ccccc1)C(N)=O [Compound 67, Ac-Thi-Orn-Pip-cha-Bta-Phe-NH2] (Ac-[2Thi][Orn][Pip][dCha][Bta]F-NH2)	20 to 50 nM		pure antagonists			> 100000 nM	
C=CC[C@@H]1NC(=O)[C@H](Cc2c[nH]c3ccccc23)NC(=O)[C@@H](CC2CCCCC2)NC(=O)[C@@H]2CCCN2C(=O)[C@@H](NC(=O)[C@H](Cc2ccccc2)NC(C)=O)CCCNC1=O [Compound 33, Ac-Phe-[Orn-Pro-cha-Trp-Eaf]] (Ac-F[Orn]P[dCha]W[AllylGly]; lactam 2-C)	5 to 10 nM	without significant loss of activity	pure antagonists			> 1430 nM	noteworthy inhibitory activity
CCCC[C@@H]1NC(=O)[C@H](Cc2c[nH]c3ccccc23)NC(=O)[C@@H](CC2CCCCC2)NC(=O)[C@@H]2CCCN2C(=O)[C@@H](NC(=O)[C@H](Cc2ccccc2)NC(=O)CON=CC(O)C(O)C(O)C(O)CO)CCCNC1=O (single isomer, unassigned) [Compound 3, HOCH2(CHOH)4—C═N—O—CH2—CO-Phe-[Orn-Pro-cha-Trp-Nle]]	50 to 200 nM	noteworthy inhibitory activity	pure antagonists			> 1430 nM	
CC(=O)N[C@@H](Cc1ccccc1)C(=O)N[C@@H](Cc1c[nH]c2ccccc12)C(=O)N1CCC[C@H]1C(=O)N[C@H](CC1CCCCC1)C(=O)N[C@@H](Cc1c[nH]c2ccccc12)C(=O)N[C@@H](Cc1ccccc1)C(N)=O [Compound 84, Ac-Phe-Trp-Pro-cha-Trp-Phe-NH2] (Ac-FWP[dCha]WF-NH2)	50 to 200 nM		pure antagonists			> 100000 nM	
CCCC[C@@H]1NC(=O)[C@H](Cc2c[nH]c3ccccc23)NC(=O)[C@@H](CC2CCCCC2)NC(=O)[C@@H]2CCCN2C(=O)[C@@H](NC(=O)[C@H](Cc2ccccc2)NC(=O)[C@H]2OC(OC)[C@H](NC(C)=O)[C@@H](O)[C@@H]2O)CCCNC1=O (stereo partly drawn) [Compound 4, X-Phe-[Orn-Pro-cha-Trp-Nle]; X = 2-acetamido-1-methyl-glucuronyl] (Ac-[X1]F[Orn]P[dCha]W[Nle]; lactam 3-C)				84 % of 200 μM	84%		
